The text below walks through data of patent US7652022B2, “Diaryl urea derivatives useful for the treatment of protein kinase dependent diseases” (Novartis AG, priority 2002, dated 2010).

The melting point is the temperature, or range, at which the solid turns liquid.

Data set [1] deals with T1, human VEGF-R2 receptor (KDR) (Homo sapiens, UniProt P35968).
T1 construct: expressed in transfected cells
The data set can be described thus: Inhibition of VEGF-induced VEGF-R2 (KDR) autophosphorylation in transfected CHO cells, sandwich ELISA. Format: cell-based. Conditions: % inhibition at 10 μM. As to the method: The inhibition of VEGF-induced receptor autophosphorylation can be confirmed with a further in vitro experiments in cells such as transfected CHO cells, which permanently express human VEGF-R2 receptor (KDR), are seeded in complete culture medium (with 10% fetal calf serum=FCS) in 6-well cell-culture plates and incubated at 37° C. under 5% CO2 until they show about 80% confluency. The compounds to be tested are then diluted in culture medium (without FCS, with 0.1% bovine serum albumin) and added to the cells. (Controls comprise medium without test compounds). After two hours of incubation at 37° C., recombinant VEGF is added; the final VEGF concentration is 20 ng/ml. After a further five minutes incubation at 37° C., the cells are washed twice with ice-cold PBS (phosphate-buffered saline) and immediately lysed in 100 μl lysis buffer per well. The lysates are then centrifuged to remove the cell nuclei, and the protein concentrations of the supernatants are determined using a commercial protein assay (BIORAD). The lysates can then either be immediately used or, if necessary, stored at −20° C.
The plates are then washed and the remaining free protein-binding sites are saturated with 3% TopBlock® (Juro, Cat. # TB232010) in phosphate buffered saline with Tween 20® (polyoxyethylen(20)sorbitane monolaurate, ICI/Uniquema) (PBST). The cell lysates (20 μg protein per well) are then incubated in these plates overnight at 4° C. together with an antiphosphotyrosine antibody coupled with alkaline phosphatase (PY20:AP from Zymed). […] The luminescence is measured in a Packard Top Count Microplate Scintillation Counter. The difference between the signal of the positive control (stimulated with VEGF) and that of the negative control (not stimulated with VEGF) corresponds to VEGF-induced VEGF-R2 phosphorylation (=100%). The activity of the tested substances is calculated as percent inhibition of VEGF-induced VEGF-R2 phosphorylation, wherein the concentration of substance that induces half the maximum inhibition is defined as the IC50 (inhibitory dose for 50% inhibition). […]

The target in data set [2] is T2, c-Abl kinase (His-tagged kinase domain of c-Abl) (Homo sapiens, UniProt P00519).
T2 construct: The His-tagged kinase domain of c-Abl is cloned and expressed in the baculovirus/Sf9 system; His tag; made in house; host or cells: Sf9 insect cells (baculovirus)
T2 sequence (P00519 242-493 limits assumed): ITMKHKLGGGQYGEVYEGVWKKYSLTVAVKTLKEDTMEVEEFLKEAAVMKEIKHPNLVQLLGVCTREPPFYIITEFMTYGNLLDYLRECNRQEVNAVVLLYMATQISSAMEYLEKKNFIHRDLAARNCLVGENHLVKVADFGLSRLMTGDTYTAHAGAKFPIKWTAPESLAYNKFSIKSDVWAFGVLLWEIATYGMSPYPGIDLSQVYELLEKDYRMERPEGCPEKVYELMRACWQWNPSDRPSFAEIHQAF
Put plainly: c-Abl protein-tyrosine kinase in vitro enzyme filter binding assay. Format: biochemical. Conditions: % inhibition at 10 μM. As to the method: An in vitro enzyme assay is performed in 96-well plates as a filter binding assay as described by Geissler et al. in Cancer Res. 1992; 52:4492-4498, with the following modifications. The His-tagged kinase domain of c-Abl is cloned and expressed in the baculovirus/Sf9 system as described by Bhat et al. in J. Biol. Chem. 1997; 272:16170-16175. A protein of 37 kD (c-Abl kinase) is purified by a two-step procedure over a Cobalt metal chelate column followed by an anion exchange column with a yield of 1-2 mg/L of Sf9 cells (Bhat et al., reference cited). The purity of the c-Abl kinase is >90% as judged by SDS-PAGE after Coomassie blue staining. The assay contains (total volume of 30 μL): c-Abl kinase (50 ng), 20 mM Tris·HCl, pH 7.5, 10 mM MgCl2, 10 μM Na3VO4, 1 mM DTT and 0.06 μCi/assay [γ^33 P]-ATP (5 μM ATP) using 30 μg/mL poly-Ala,Glu,Lys,Tyr-6:2:5:1 (Poly-AEKY, Sigma P1152) in the presence of 1% DMSO. Reactions are terminated by adding 10 μL of 250 mM EDTA and 30 μL of the reaction mixture is transferred onto Immobilon-PVDF membrane (Millipore, Bedford, Mass., USA) previously soaked for 5 min with methanol, rinsed with water, then soaked for 5 min with 0.5% H3PO4 and mounted on vacuum manifold with disconnected vacuum source. After spotting all samples, vacuum is connected and each well rinsed with 200 μL 0.5% H3PO4. Membranes are removed and washed on a shaker with 0.5% H3PO4 (4 times) and once with ethanol. Membranes are counted after drying at ambient temperature, mounting in Packard TopCount 96-well frame, and addition of 10 μL/well of Microscint™ (Packard).
Enzymatic (c-Abl, KDR, Flt3) data are given on Table 17 (% inhibition at 10 μM). (Measurements are made as described above in the general description).

T1 sequence (P35968 20-1356): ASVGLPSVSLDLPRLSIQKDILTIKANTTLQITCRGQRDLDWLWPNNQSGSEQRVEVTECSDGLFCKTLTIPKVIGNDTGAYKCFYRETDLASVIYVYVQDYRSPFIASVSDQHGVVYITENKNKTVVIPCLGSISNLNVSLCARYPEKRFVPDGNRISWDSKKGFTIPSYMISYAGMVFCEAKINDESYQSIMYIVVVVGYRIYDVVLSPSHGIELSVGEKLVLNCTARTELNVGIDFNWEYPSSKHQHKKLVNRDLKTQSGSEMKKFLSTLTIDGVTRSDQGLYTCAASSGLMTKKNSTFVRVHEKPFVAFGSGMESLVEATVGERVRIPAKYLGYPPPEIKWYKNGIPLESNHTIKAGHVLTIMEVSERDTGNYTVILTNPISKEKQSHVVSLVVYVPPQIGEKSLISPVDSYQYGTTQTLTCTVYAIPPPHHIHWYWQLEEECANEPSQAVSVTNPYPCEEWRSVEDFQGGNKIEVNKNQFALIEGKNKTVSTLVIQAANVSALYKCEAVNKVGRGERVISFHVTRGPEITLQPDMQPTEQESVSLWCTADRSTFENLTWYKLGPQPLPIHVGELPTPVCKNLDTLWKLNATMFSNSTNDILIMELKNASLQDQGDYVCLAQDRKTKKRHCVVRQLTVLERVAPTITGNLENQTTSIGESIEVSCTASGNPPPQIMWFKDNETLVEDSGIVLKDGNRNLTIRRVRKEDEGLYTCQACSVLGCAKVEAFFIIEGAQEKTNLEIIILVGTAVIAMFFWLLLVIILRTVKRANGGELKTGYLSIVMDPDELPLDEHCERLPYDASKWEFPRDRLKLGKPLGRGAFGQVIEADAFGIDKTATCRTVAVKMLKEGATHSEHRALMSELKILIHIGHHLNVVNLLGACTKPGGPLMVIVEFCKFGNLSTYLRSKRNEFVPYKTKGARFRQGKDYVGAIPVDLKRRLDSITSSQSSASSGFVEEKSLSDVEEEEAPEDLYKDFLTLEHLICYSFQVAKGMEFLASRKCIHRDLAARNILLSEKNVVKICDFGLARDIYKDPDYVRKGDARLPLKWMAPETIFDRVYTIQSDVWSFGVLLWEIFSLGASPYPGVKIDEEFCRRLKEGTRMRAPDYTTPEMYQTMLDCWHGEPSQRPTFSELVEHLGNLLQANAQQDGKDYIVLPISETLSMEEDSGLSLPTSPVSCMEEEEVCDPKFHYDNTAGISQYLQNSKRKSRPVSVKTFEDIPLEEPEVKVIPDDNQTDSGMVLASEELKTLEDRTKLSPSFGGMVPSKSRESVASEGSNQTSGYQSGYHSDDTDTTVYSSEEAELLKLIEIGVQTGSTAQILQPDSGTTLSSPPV

In turn, `COc1cc(NC(=O)Nc2ccc(Oc3ccncc3)cc2)cc(C(F)(F)F)c1` [Example 37, 1-(3-Methoxy-5-trifluoromethyl-phenyl)-3-[4-(pyridin-4-yloxy)-phenyl]-urea] yielded a melting point of 162.5 to 164.5 °C. On to `O=C(Nc1ccc(Oc2ccncc2)cc1)Nc1cccc(C(F)(F)F)c1` [Example 2], for which the “KDR trans (% at 10 μM)” value in data set [1] stood at 99%. For the same compound, the “c-Abl (% at 10 μM)” value in data set [2] stood at 84%.

As to `CNc1cc(Oc2ccc(NC(=O)Nc3ccc(C)c(C(F)(F)F)c3)cc2)ncn1` [Example 67], the melting point is 202 to 203 °C (dec.). On the same count and under the same terms, to `Cc1ccc(NC(=O)Nc2ccc(Oc3cc(Cl)ncn3)cc2)cc1C(F)(F)F` [Example 76, 1-[4-(6-Chloro-pyrimidin-4-yloxy)-phenyl]-3-(4-methyl-3-trifluoromethyl-phenyl)-urea] belongs 183 to 184.5 °C; to `Cc1ccc(NC(=O)Nc2ccc(Oc3ccncc3)cc2)cc1C(F)(F)F` [Example 43, 1-(4-Methyl-3-trifluoromethyl-phenyl)-3-[4-(pyridin-4-yloxy)-phenyl]-urea], 149 °C (dec.); to `O=C(Nc1ccc(Oc2cc(Nc3ccc(O)cc3)ncn2)cc1)Nc1cccc(C(F)(F)F)c1` [Example 22, N-(4-(4-(4-hydroxyphenylamino)-pyrimidin-6-yl)-oxyphenyl)-N′-(3-trifluoromethylphenyl)-urea], 142 °C (dec.). The compound `Cc1ccc(NC(=O)Nc2ccc(Oc3cc(Cl)ncn3)cc2)cc1` [Example 97, 1-[4-(6-Chloro-pyrimidin-4-yloxy)-phenyl]-3-p-tolyl-urea] returned a melting point of 217 to 219 °C. `CCN(CC)c1ccc(NC(=O)Nc2ccc(Oc3ccncc3)cc2)cc1C(F)(F)F` [Example 39]: the melting point was 60 °C (dec.). Same read-out and setting: to `CCc1cc(Oc2ccc(NC(=O)Nc3ccc(C)cc3)cc2)ncn1` [Example 99, 1-[4-(6-Ethyl-pyrimidin-4-yloxy)phenyl]-3-p-tolyl-urea] belongs 160 to 162 °C. Consider `CCCc1ccc(NC(=O)Nc2ccc(Oc3ccncc3)cc2)cc1` [Example 3], for which the “KDR trans (% at 10 μM)” value in data set [1] amounted to 25%. Further, the “c-Abl (% at 10 μM)” value in data set [2] was determined as 58%.

`CCN1CCN(Cc2cc(NC(=O)Nc3ccc(Oc4cc(Cl)ncn4)cc3)cc(C(F)(F)F)c2)CC1` [Example 134, N-(4-(6-Chloropyrimidin-4-yl-oxy)-phenyl)-N′-{5-trifluoromethyl-3-[(4-ethylpiperazin-1-ylmethyl)]-phenyl}-urea] gave a melting point of 168 to 169 °C. Same read-out and setting: to `O=C(Nc1cccc(C(F)(F)F)c1)N1CCc2cc(Oc3cc(Cl)ncn3)ccc21` [Example 163, 5-(6-Chloro-pyrimidin-4-yloxy)-2,3-dihydro-indole-1-carboxylic acid (3-trifluoromethyl-phenyl)-amide] belongs 181 °C; to `CN(C)Cc1cc(NC(=O)Nc2ccc(Oc3cc(Cl)ncn3)cc2)cc(C(F)(F)F)c1` [Example 135, N-(4-(6-Chloropyrimidin-4-yl-oxy)-phenyl)-N′-[5-trifluoromethyl-3-(dimethylamino-methyl)-phenyl]-urea], 154 °C. `CCc1ccc(NC(=O)Nc2ccc(Oc3ccncc3)cc2)cc1` [Example 1, N-(4-pyridin-4-yl-oxy-phenyl)-N′-(4-ethyl-phenyl)-urea] came in with a melting point of 166.5 to 168 °C. Moreover, in data set [1], the “KDR trans (% at 10 μM)” value came to 100%. In addition, the “c-Abl (% at 10 μM)” value in data set [2] came to 62%.
